{
  "source": "paper PMC5079829",
  "about": "(Bioorganic & medicinal chemistry, 2016)",
  "key": {"H9/HIV-1IIIB": {"test_system": "H9/HIV-1IIIB", "conditions": "previously reported; cited from earlier work"}, "[1]": {"test_system": "HIV-1 Env pseudovirus QF495.23M.ENV.B2", "conditions": "QF495.23M.ENV.B2, subtype A, NIH # 11892; previously published ref 18; cited from earlier work"}, "[2]": {"test_system": "HIV-1 Env pseudovirus pCAAN5342 clone A2", "conditions": "pCAAN5342 clone A2, subtype B, NIH # 11038; previously published ref 18; cited from earlier work"}, "[3]": {"test_system": "HIV-1 Env pseudovirus QG393.60M.ENV.A1", "conditions": "QG393.60M.ENV.A1, subtype A2/D, NIH # 11905; previously published ref 18; cited from earlier work"}, "[4]": {"test_system": "HIV-1 Env pseudovirus AC10.0, clone 29", "conditions": "AC10.0, clone 29, subtype B, NIH # 11024; previously published ref 18; cited from earlier work"}, "[5]": {"test_system": "HIV-1 Env pseudovirus QF495.23M.ENV.A1", "conditions": "QF495.23M.ENV.A1, subtype A, NIH # 11890; previously published ref 18; cited from earlier work"}, "[6]": {"test_system": "HIV-1 Env pseudovirus BG505-T332N", "conditions": "subtype A, previously published ref 18; cited from earlier work"}, "[7]": {"test_system": "panel of 51 Env-pseudotyped viruses", "test": "microbe, parasite or virus in culture", "format": "cell-based", "conditions": "Human immunodeficiency virus 1, read-out: IC50 range over the pseudovirus panel"}, "[8]": {"test_system": "HIV-1 Env pseudovirus CRF02_AG clone 278", "conditions": "CRF02_AG clone 278, subtype A/G, NIH # 11605; previously published ref 18; cited from earlier work"}, "[9]": {"test_system": "HIV-1 Env pseudovirus CAP210.2.00.E8", "conditions": "CAP210.2.00.E8, subtype C, NIH # 11317; previously published ref 18; cited from earlier work"}, "[10]": {"test_system": "HIV-1 Env pseudovirus QG393.60M.ENV.B8", "conditions": "QG393.60M.ENV.B8, subtype A2/D, NIH # 11907; previously published ref 18; cited from earlier work"}, "[11]": {"test_system": "HIV-1 Env pseudovirus QD435.100M.ENV.E1", "conditions": "QD435.100M.ENV.E1, subtype D, NIH # 11918; previously published ref 18; cited from earlier work"}, "[12]": {"test_system": "HIV-1 Env pseudovirus QH0692, clone 42", "conditions": "QH0692, clone 42, subtype B, NIH # 11018; previously published ref 18; cited from earlier work"}, "[13]": {"test_system": "HIV-1 Env pseudovirus BF535.W6M.ENV.A1", "conditions": "BF535.W6M.ENV.A1, subtype D/A, NIH # 11517 (infant); previously published ref 18; cited from earlier work"}, "[14]": {"test_system": "HIV-1 Env pseudovirus QB726.70M.ENV.C4", "conditions": "QB726.70M.ENV.C4, subtype A, NIH # 11888; previously published ref 18; cited from earlier work"}, "[15]": {"test_system": "HIV-1 Env pseudovirus ZM135M.PL10a", "conditions": "subtype C, NIH # 11315, previously published ref 18; cited from earlier work"}, "[16]": {"test_system": "HIV-1 Env pseudovirus QG393.60M.ENV.B7", "conditions": "QG393.60M.ENV.B7, subtype A2/D, NIH # 11906; previously published ref 18; cited from earlier work"}, "[17]": {"test_system": "HIV-1 Env pseudovirus SC422661.8", "conditions": "SC422661.8, subtype B, NIH # 11058; previously published ref 18; cited from earlier work"}, "[18]": {"test_system": "HIV-1 Env pseudovirus pTHRO4156 clone 18", "conditions": "pTHRO4156 clone 18, subtype B, NIH # 11037; previously published ref 18; cited from earlier work"}, "[19]": {"test_system": "HIV-1 Env pseudovirus p1058_11.B11.1550", "conditions": "p1058_11.B11.1550, subtype B, NIH # 11563, R5X4-tropic; previously published ref 18; cited from earlier work"}, "[20]": {"test_system": "HIV-1 Env pseudovirus ZM214M.PL15", "conditions": "ZM214M.PL15, subtype C, NIH # 11310; previously published ref 18; cited from earlier work"}, "[21]": {"test_system": "HIV-1 Env pseudovirus QB099.391M.ENV.C8", "conditions": "QB099.391M.ENV.C8, subtype C, NIH # 11909; previously published ref 18; cited from earlier work"}, "[22]": {"test_system": "HIV-1 Env pseudovirus CRF02_AG clone 266", "conditions": "CRF02_AG clone 266, subtype A/G, NIH # 11602; previously published ref 18; cited from earlier work"}},
  "data": [
    {"smiles": "CC1(C)CC(NC(=O)C(=O)Nc2ccc(Cl)cc2)CC(C)(C)N1", "note": "[NBD-556]", "values": [
      {"measurement": "inhibition of cell-to-cell HIV-1 transmission", "setting": "H9/HIV-1IIIB", "value": "failed to do so"}
    ]},
    {"smiles": "Cc1nc([C@H](NC(=O)c2ccc(-c3ccc(Cl)cc3)[nH]2)[C@@H]2CCCCN2)sc1CO", "note": "[NBD-11021A2]", "values": [
      {"measurement": "IC50", "setting": "[1]", "value": "0.6 ± 0.4", "unit": "µM"},
      {"measurement": "IC50", "setting": "[2]", "value": "0.6 ± 0.07", "unit": "µM"},
      {"measurement": "IC50", "setting": "[3]", "value": "0.41 ± 0.2", "unit": "µM"},
      {"measurement": "IC50", "setting": "[4]", "value": "0.32 ± 0.01", "unit": "µM"},
      {"measurement": "IC50", "setting": "[5]", "value": "1.3 ± 0.4", "unit": "µM"},
      {"measurement": "IC50", "setting": "[6]", "value": "1 ± 0.1", "unit": "µM"},
      {"measurement": "IC50", "setting": "[7]", "value": "0.32 to 4.4", "unit": "µM"},
      {"measurement": "IC50", "setting": "[8]", "value": "1.3 ± 0.5", "unit": "µM"},
      {"measurement": "IC50", "setting": "[9]", "value": "2.8 ± 0.7", "unit": "µM"},
      {"measurement": "IC50", "setting": "[10]", "value": "0.48 ± 0.2", "unit": "µM"},
      {"measurement": "IC50", "setting": "[11]", "value": "3.7 ± 0.1", "unit": "µM"},
      {"measurement": "IC50", "setting": "[12]", "value": "0.52 ± 0.1", "unit": "µM"},
      {"measurement": "IC50", "setting": "[13]", "value": "2.8 ± 0.6", "unit": "µM"},
      {"measurement": "IC50", "setting": "[14]", "value": "1.3 ± 0.3", "unit": "µM"},
      {"measurement": "IC50", "setting": "[15]", "value": "2.7 ± 1.2", "unit": "µM"},
      {"measurement": "IC50", "setting": "[16]", "value": "0.8 ± 0.3", "unit": "µM"},
      {"measurement": "IC50", "setting": "[17]", "value": "0.33 ± 0.01", "unit": "µM"},
      {"measurement": "IC50", "setting": "[18]", "value": "1 ± 0.2", "unit": "µM"},
      {"measurement": "IC50", "setting": "[19]", "value": "1.1 ± 0.8", "unit": "µM"},
      {"measurement": "IC50", "setting": "[20]", "value": "2.7 ± 0.2", "unit": "µM"},
      {"measurement": "IC50", "setting": "[21]", "value": "1.8 ± 0.5", "unit": "µM"},
      {"measurement": "IC50", "setting": "[22]", "value": "1 ± 0.2", "unit": "µM"}
    ]}
  ]
}
